Experimental data: paper PMC9674851, “Biological effects of the loss of homochirality in a multicellular organism” (Nature Communications, 2022)
Numbered stars: 1 amine (or outer) side, 2 acyl side, 3 side chain; on linkers, the order of the positions; unused ones are H or OH. Square brackets hold non-standard residues; d marks the D form. Peptide text beside a SMILES is read from it. * marks the point of attachment. βAsp = O=C(O)[C@H](CC(=O)[*:2])N[*:1]; AMC = Cc1cc(=O)oc2cc(N*)ccc12

What was measured:
[1] = target: T1, recombinant human active Caspase-3 (Homo sapiens, UniProt P42574); assay: ChiCAS: chiral-selective in vitro DEVD-ase assay; type: biochemical; settings: for caspase-3 activity: substrate 20 µM in HEPES assay buffer with 10 mM DTT, fluorescence at 460 nm; for cleavage by Caspase-3 (in words): recombinant human Caspase-3, fluorogenic AMC substrates
T1 construct: Assay was performed with recombinant human active Caspase-3 (556471, BD Biosciences); purchased BD Biosciences 556471
T1 sequence (P42574 29-175 limits assumed): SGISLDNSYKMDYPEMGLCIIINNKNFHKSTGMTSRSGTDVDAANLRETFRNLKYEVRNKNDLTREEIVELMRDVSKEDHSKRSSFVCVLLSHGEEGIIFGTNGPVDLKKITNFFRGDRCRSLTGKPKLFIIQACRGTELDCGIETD
T1 sequence (P42574 176-277 limits assumed): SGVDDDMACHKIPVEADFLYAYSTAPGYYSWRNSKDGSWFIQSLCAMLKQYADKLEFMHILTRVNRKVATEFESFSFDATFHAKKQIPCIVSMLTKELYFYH
Protocol: The following homochiral and heterochiral fluorogenic substrates were chemically synthesised: Ac-DEV-(L-aspartate)-AMC (positive control), Ac-DEV-(iso-L-aspartate)-AMC, Ac-DEV-(D-aspartate)-AMC, Ac-DEV-(iso-D-aspartate)-AMC, Ac-DEVG-AMC and Ac-DEV-(L-alanine)-AMC (negative control) and […] (custom peptide synthesis by GenScript). All synthetic peptides were dissolved in DMSO and stored at -80 °C. Reactions were performed as described below. Ac-DEVx-AMC substrates were used in a final concentration of 20 μM in assay buffer (50 mM HEPES, 100 mM NaCl, 0,1% CHAPS, 1 mM EDTA, 10% Glycerol, 10 mM DTT - immediately added before use). Assay was performed with recombinant human active Caspase-3 (556471, BD Biosciences). Reactions were performed in 96 well microplates (100 μl/reaction) and caspase activity was monitored spectrophotometrically by the increase in fluorescence at 460 nm using Synergy 4 BioTek fluorescence absorbance microplate reader and Gen5 program.

[2] = target: T2, purified recombinant human Pimt (Homo sapiens, UniProt P22061); assay: Pimt colorimetric continuous enzyme coupled assay (SAM methyltransferase colorimetric assay); type: biochemical; settings: Pimt 1 µM, substrate 100 µM, 37 °C
T2 construct: purchased Gentaur MBS144034
T2 sequence (P22061 whole entry): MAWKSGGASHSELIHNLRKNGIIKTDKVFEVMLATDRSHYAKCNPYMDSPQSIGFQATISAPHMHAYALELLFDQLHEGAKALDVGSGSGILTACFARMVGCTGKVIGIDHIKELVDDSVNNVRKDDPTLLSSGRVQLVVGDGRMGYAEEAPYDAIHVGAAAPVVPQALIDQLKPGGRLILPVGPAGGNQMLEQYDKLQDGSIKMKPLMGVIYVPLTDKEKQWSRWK
Protocol: SAM Methyltransferase colorimetric assay (Merck) was used to measure the activity of purified recombinant human Pimt (EC 2.1.1.77, MBS144034, Gentaur) on different target substrates at 37 °C. Pimt (1 µM final concentration) enzymatic activity was followed spectrophotometrically by the increase in absorbance at 510 nm using DeNovix DS-11 Series microvolume Spectrophotometer/Fluorometer. Assay was performed on different homo- and heterochiral synthetic substrates Ac-[…]-amide (Peptide 1), Ac-KRKGDEV-(iso-L-Asp)-GVDEVAK-amide (Peptide 2) (both of which HPLC purity is >90%), at 100 µM final concentration. The peptide’s sequence is identical and correspond to the PARP1 fragment which is cleaved by Dcp-1 in the in vivo cleavage assay.

[3] = design: method as in earlier work; settings: ref http://www.ilo.org/dyn/icsc/showcard.display?p_version=2&p_card_id=1439; cited from earlier work

| Compound | caspase-3 activity ([1]; experiment 1) [R.F.U.] | caspase-3 activity ([1]; experiment 2) [R.F.U.] | caspase-3 activity ([1]; experiment 3) [R.F.U.] | cleavage by Caspase-3 (in words) [1] | Pimt enzymatic activity (in words) [2] | Octanol/water partition coefficient as log Pow [3] |
| --- | --- | --- | --- | --- | --- | --- |
| CC(=O)N[C@@H](CCCCN)C(=O)N[C@@H](CCCNC(=N)N)C(=O)N[C@@H](CCCCN)C(=O)NCC(=O)N[C@@H](CC(=O)O)C(=O)N[C@@H](CCC(=O)O)C(=O)N[C@H](C(=O)N[C@@H](CC(=O)O)C(=O)NCC(=O)N[C@H](C(=O)N[C@@H](CC(=O)O)C(=O)N[C@@H](CCC(=O)O)C(=O)N[C@H](C(=O)N[C@@H](C)C(=O)N[C@@H](CCCCN)C(N)=O)C(C)C)C(C)C)C(C)C [Peptide 1] (Ac-KRKGDEVDGVDEVAK-NH2) | – | – | – | – | no enzymatic activity was detected | – |
| N[C@@H](CC(=O)O)C(=O)O [AsparticAcid] | – | – | – | – | – | -3.89 |

Now from value to molecule, other results behind:

| caspase-3 activity ([1]; experiment 1) [R.F.U.] | caspase-3 activity ([1]; experiment 2) [R.F.U.] | caspase-3 activity ([1]; experiment 3) [R.F.U.] | cleavage by Caspase-3 (in words) [1] | Pimt enzymatic activity (in words) [2] | Compound | Octanol/water partition coefficient as log Pow [3] |
| --- | --- | --- | --- | --- | --- | --- |
| 650 | 558 | 613 | non-cleavable | – | CC(=O)N[C@@H](CC(=O)O)C(=O)N[C@@H](CCC(=O)O)C(=O)N[C@H](C(=O)NCC(=O)Nc1ccc2c(C)cc(=O)oc2c1)C(C)C [Ac-DEVG-AMC, acetyl-DEVG-7-amido-4-methylcoumarin] (Ac-DEVG-{AMC}) | – |
| 396 | 61 | 164 | non-cleavable | – | CC(=O)N[C@@H](CC(=O)O)C(=O)N[C@@H](CCC(=O)O)C(=O)N[C@H](C(=O)N[C@@H](C)C(=O)Nc1ccc2c(C)cc(=O)oc2c1)C(C)C [Ac-DEVA-AMC, acetyl-DEVA-7-amido-4-methylcoumarin] (Ac-DEVA-{AMC}) | – |
| – | – | – | – | active Pimt enzymatic activity | CC(=O)N[C@@H](CCCCN)C(=O)N[C@@H](CCCNC(=N)N)C(=O)N[C@@H](CCCCN)C(=O)NCC(=O)N[C@@H](CC(=O)O)C(=O)N[C@@H](CCC(=O)O)C(=O)N[C@H](C(=O)N[C@@H](CC(=O)NCC(=O)N[C@H](C(=O)N[C@@H](CC(=O)O)C(=O)N[C@@H](CCC(=O)O)C(=O)N[C@H](C(=O)N[C@@H](C)C(=O)N[C@@H](CCCCN)C(N)=O)C(C)C)C(C)C)C(=O)O)C(C)C [Peptide 2] (Ac-KRKGDEV[βAsp]GVDEVAK-NH2) | – |
